Laboratory results reported in the supplement of paper PMC3974653.
Counter-ions that a name gives are not always drawn.

Tested on: MTT (mouse pheochromocytoma)
Experiment: IC50 of cell viability (ATP content)
Details: (24 or 48 h)
In short: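 MTT mouse pheochromocytoma cells were seeded into white 1536-well plates at 5 µl per well from a 200,000 cells/ml suspension in DMEM with 5% FBS and 1% horse serum, then cultured overnight at 37°C, 5% CO2. A pintool added 23 nl of library compound in DMSO at 8 concentrations (final 0.5 nM to 46 µM) for 24 or 48 hrs, and CellTiter-Glo ATP luminescence was read after 15 minutes. Signals were scaled so that positive-control wells equalled 100% and DMSO wells 0%. IC50 values were derived by fitting a four-parameter logistic curve.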

SMILES | IC50 of cell viability
[H][C@]12C[C@@]3([H])C4=CCO[C@@H]5CC(=O)N6C([C@@]35[H])[C@]1(CC[N@@]2C4)C7=C6C=CC=C7 (some centres not stated) [STRYCHNINE] | > 46 µM
C(=C\c1ccncc1)/c1ccccc1 [STYRYLPYRIDINIUM CHLORIDE] | > 46 µM
O=C(O)CCC(=O)O [SUCCINIC ACID] | > 46 µM
CC1(C)SC2C(NC(=O)C(c3ccccc3)S(=O)(=O)[O-])C(=O)N2C1C(=O)[O-] (configuration not stated) [SULBENICILLIN DISODIUM] | > 46 µM
Cc1nc(N[S+](=O)([O-])c2ccc(N)cc2)nc(C)c1Br [SULFABROMOMETHAZINE SODIUM] | > 46 µM
NC(=O)NS(=O)(=O)c1ccc(N)cc1 [SULFACARBAMIDUM] | > 46 µM
COc1cc(N[S+](=O)([O-])c2ccc(N)cc2)nc(C)n1 [SULFAMETOMIDINE] | > 46 µM
CC(=O)Nc1ccc([S+](=O)([O-])Nc2ccc([N+](=O)[O-])cc2)cc1 [SULFANITRAN] | > 46 µM
N[S+](=O)([O-])c1ccc(NC(=O)CCC(=O)O)cc1 [SULFASUCCINAMIDUM] | > 46 µM
NC(=S)N[S+](=O)([O-])c1ccc(N)cc1 [SULFATOLAMIDE] | > 46 µM
O=C1OC(c2ccc(O)c([S+](=O)([O-])O)c2)(c2ccc(O)c([S+](=O)([O-])O)c2)c2c(Br)c(Br)c(Br)c(Br)c21 (configuration not stated) [SULFOBROMOPHTHALEIN SODIUM] | > 46 µM
CCC(C)(S(=O)(=O)CC)S(=O)(=O)CC [SULFONETHYLMETHANE] | > 46 µM
CCS(=O)(=O)C(C)(C)S(=O)(=O)CC [SULFONMETHANE] | > 46 µM
COc1cc([S+](C)[O-])ccc1-c1nc2ncccc2[nH]1 (configuration not stated) [SULMAZOLE] | > 46 µM
CCCCCCCCNC(C)C(O)c1ccc(SC(C)C)cc1 (configuration not stated) [SULOCTIDIL] | > 46 µM
CN[S+](=O)([O-])Cc1ccc2[nH]cc(CCN(C)C)c2c1 [SUMATRIPTAN] | > 46 µM
CCOCC(O)COc1ccc(NC(=O)CC[S+](C)C)cc1 (configuration not stated) [SUPLATAST TOSILATE] | > 46 µM
Cc1ccc(C(=O)Nc2ccc(S(=O)(=O)O)c3cc(S(=O)(=O)O)cc(S(=O)(=O)O)c23)cc1NC(=O)c1cccc(NC(=O)Nc2cccc(C(=O)Nc3cc(C(=O)Nc4ccc(S(=O)(=O)O)c5cc(S(=O)(=O)O)cc(S(=O)(=O)O)c45)ccc3C)c2)c1 [SURAMIN] | > 46 µM
CCON=O [SWEET SPIRITS OF NITRE] | > 46 µM
CC(=O)NC(=O)c1ccccc1O [Salacetamida] | > 46 µM
O=C(O)c1cc(/N=N/c2ccc([S+](=O)([O-])Nc3ccccn3)cc2)ccc1O [Salicylazosulfapyridine] | > 46 µM
O=C(O)c1ccccc1O [Salicylic acid] | > 46 µM
OCc1cc(C(O)CNCCCCCCOCCCCc2ccccc2)ccc1O (configuration not stated) [Salmeterol] | > 46 µM
CC(O)C(O)[C@H]1CNc2nc(N)nc(O)c2N1 (some centres not stated) [Sapropterin] | > 46 µM

SMILES | IC50 of cell viability
CC(C)(C)NC(=O)[C@@H]1C[C@@H]2CCCC[C@@H]2CN1C[C@@H](O)[C@H](Cc1ccccc1)NC(=O)[C@H](CC(N)=O)NC(=O)c1ccc2ccccc2n1 [Saquinavir Mesylate] | > 46 µM
N#C[C@@H]1C[C@@H]2C[C@@H]2N1C(=O)[C@@H](N)C12CC3CC(CC(O)(C3)C1)C2 [Saxagliptin] | > 46 µM
C[N+]1([O-])[C@@H]2CC(OC(=O)[C@@H](CO)c3ccccc3)C[C@H]1[C@H]1O[C@H]12 (some centres not stated) [Scopolamin-N-oxide hydrobromide] | > 46 µM
Br.CN1[C@H]2C[C@H](OC(=O)[C@H](CO)c3ccccc3)C[C@H]1[C@H]1O[C@H]12.O.O.O [Scopolamine hydrobromide trihydrate] | > 46 µM
C#CCN(C)[C@@H](C)Cc1ccccc1 [Selegiline hydrochloride] | > 46 µM
Cn1cnc2c(F)c(Nc3ccc(Br)cc3Cl)c(C(=O)NOCCO)cc21 [Selumetinib] | > 46 µM
CCN(CC)CCNC(=O)c1ccc(N[S+](C)(=O)[O-])cc1.Cl.O [Sematilide monohydrochloride monohydrate] | > 46 µM
Clc1ccc([C@H](Cn2ccnc2)OCc2csc3c(Cl)cccc23)c(Cl)c1 [Sertaconazole nitrate] | > 46 µM
O=C1NCCN1CCN1CCC(c2cn(-c3ccc(F)cc3)c3ccc(Cl)cc23)CC1 [Sertindole] | > 46 µM
C=CCN.Cl.ClC[C@H]1CO1 [Sevelamer hydrochloride] | > 46 µM
CN/C(=N\c1ccc(C2=NNC(=O)CC2C)cc1)NC#N (configuration not stated) [Siguazodan] | > 46 µM
CCCc1nn(C)c2c(O)nc(-c3cc([S+](=O)([O-])N4CCN(C)CC4)ccc3OCC)nc12 [Sildenafil citrate] | > 46 µM
COc1cc([C@H]2Oc3cc([C@H]4Oc5cc(O)cc(O)c5C(=O)[C@@H]4O)ccc3O[C@@H]2CO)ccc1O [Silibinin] | > 46 µM
CCC(C)(C)C(=O)O[C@@H]1C[C@H](C)\C=C2\C=C/[C@H](C)[C@@H](CC[C@H]3C[C@@H](O)CC(=O)O3)[C@@H]12 [Simvastatin] | > 46 µM
CN[C@H]1[C@@H](O)[C@@H](OC[C@@]1(C)O)O[C@@H]2[C@H](N)C[C@H](N)[C@H](O[C@@H]3O\C(=C/C[C@H]3N)CN)[C@H]2O [Sisomicin sulfate] | > 46 µM
N[C@@H]1CN(CC12CC2)C3=C(F)C=C4C(=O)\C(=C/N([C@@H]5C[C@@H]5F)C4=C3Cl)C(O)=O [Sitafloxacin] | > 46 µM
O.O.[Na+].[Na+].[O]=[Cr](=[O])([O-])[O][Cr](=[O])(=[O])[O-] [Sodium Dichromate Dihydrate] | > 46 µM
O.O=C([O-])CC([S][Au])C(=O)[O-].[Na+].[Na+] (configuration not stated) [Sodium aurothiomalate hydrate] | > 46 µM
O=c1[n-]c(=O)n(Cl)c(=O)n1Cl [Sodium dichloroisocyanurate] | > 46 µM
CCCCCCCCCCCCOS(=O)(=O)[O-] [Sodium dodecyl sulfate] | > 46 µM
O=S(=O)([O-])O.[Na+] [Sodium hydrogen sulfate] | > 46 µM
[O-]Cl [Sodium hypochlorite] | > 46 µM
Cc1ccc(S(=O)(=O)[O-])cc1C [Sodium xylenesulfonate] | > 46 µM
